What follows are compounds tested against T1, human IL-17A (Homo sapiens, UniProt Q16552) (assay: IL-17A AlphaLISA competition assay (block of IL-17A binding to its receptor IL-17RA)). Settings: mean IC50 (n≥2), block of IL-17A binding to IL-17RA.
T1 construct: purchased R&D Systems 7955-IL/CF
T1 sequence (Q16552 24-155): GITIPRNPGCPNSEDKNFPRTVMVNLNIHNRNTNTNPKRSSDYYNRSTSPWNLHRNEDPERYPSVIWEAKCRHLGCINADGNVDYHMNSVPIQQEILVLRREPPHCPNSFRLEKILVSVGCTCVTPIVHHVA
How it was run: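 Bead-based AlphaLISA competition in PBS with 0.05% Tween-20 and 0.1% BSA: compound first meets human IL-17A (7.5 nM stock) for 30 min, then IL-17RA/Fc (5 nM stock) for 90 min, all at room temperature, before acceptor/donor bead capture. IC50 fitted 4-parameter, DMSO and 4 μM reference inhibitor as controls; at least duplicate.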
CN1C(=O)N(Cc2ccnc(NC(=O)[C@@H](NC(=O)OC(C)(C)C)[C@H]3CC[C@H](C)CC3)c2)CC12CCC2 [Example 23, Tert-butyl ((S)-2-((4-((5-methyl-6-oxo-5,7-diazaspiro[3.4]octan-7-yl)methyl)pyridin-2-yl)amino)-1-((1r,4S)-4-methylcyclohexyl)-2-oxoethyl)carbamate] showed an IC50 of 6950 nM. C[C@@H](OC(C)(C)C)[C@H](NC(=O)c1nonc1C1CC1)C(=O)Nc1cc(CN2C[C@@H](C(F)(F)F)NC2=O)ccn1 [Example 102, N-((2S,3R)-3-(tert-butoxy)-1-oxo-1-((4-(((S)-2-oxo-4-(trifluoromethyl)-imidazolidin-1-yl)methyl)pyridin-2-yl)amino)butan-2-yl)-4-cyclopropyl-1,2,5-oxadiazole-3-carboxamide] gave an IC50 of 356 nM. Compound CCn1nccc1C(=O)N[C@H](C(=O)Nc1cc([C@@H](COC)N2CC(F)(F)CNC2=O)ccn1)C1CCC(F)(F)CC1 [Example 179, N-((S)-2-((4-((S)-1-(5,5-difluoro-2-oxotetrahydropyrimidin-1(2H)-yl)-2-methoxyethyl)pyridin-2-yl)amino)-1-(4,4-difluorocyclohexyl)-2-oxoethyl)-1-ethyl-1H-pyrazole-5-carboxamide] has an IC50 of 83 nM. COC[C@H](c1ccnc(NC(=O)[C@@H](NC(=O)C(C)c2cccc(C#N)c2)C2CCC(F)(F)CC2)c1)N1C[C@@H](C(F)(F)F)NC1=O (stereo partly drawn) [Example 205, 2-(3-cyanophenyl)-N-((S)-1-(4,4-difluorocyclohexyl)-2-((4-((S)-2-methoxy-1-((S)-2-oxo-4-(trifluoromethyl)imidazolidin-1-yl)ethyl)pyridin-2-yl)amino)-2-oxoethyl) propanamide] was tested, and the IC50 was 347 nM. For O=C(N[C@H](C(=O)Nc1cc(C(C2CC2)N2C[C@@H](C(F)(F)F)NC2=O)ccn1)C1CCC(F)(F)CC1)c1nonc1C1CC1 (single isomer, unassigned) [Example 163, 4-Cyclopropyl-N-((S)-2-((4-((R or S)-cyclopropyl((S)-2-oxo-4-(trifluoromethyl)imidazolidin-1-yl)methyl)pyridin-2-yl)amino)-1-(4,4-difluorocyclohexyl)-2-oxoethyl)-1,2,5-oxadiazole-3-carboxamide], the IC50 was 20 nM. COC[C@H](c1ccnc(NC(=O)C(NC(=O)c2nonc2C2CC2)C2CCC(C)(F)CC2)c1)N1C[C@@H](C(F)(F)F)NC1=O (single isomer, unassigned) [Example 295] gave an IC50 of 25 nM. COC[C@H](c1ccnc(NC(=O)[C@@H](NC(=O)c2ccnn2C)C2CCC(C(F)(F)F)CC2)c1)N1C[C@@H](C(F)(F)F)NC1=O (stereo partly drawn) [Example 302, N-((1S)-2-((4-((S)-2-methoxy-1-((S)-2-oxo-4-(trifluoromethyl)imidazolidin-1-yl)ethyl)pyridin-2-yl)amino)-2-oxo-1-(4-(trifluoromethyl)-cyclohexyl)ethyl)-1-methyl-1H-pyrazole-5-carboxamide] was tested, and the IC50 was 44 nM. For CC(C)n1nccc1C(=O)N[C@H](C(=O)Nc1cc(O[C@@H]2C[C@@H](C(F)(F)F)NC2=O)ccn1)[C@H]1CC[C@H](C)CC1 [Example 323, 1-isopropyl-N—((S)-1-((1r,4S)-4-methylcyclohexyl)-2-oxo-2-((4-(((3R,5S)-2-oxo-5-(trifluoromethyl)pyrrolidin-3-yl)oxy)pyridin-2-yl)amino)ethyl)-1H-pyrazole-5-carboxamide], the IC50 was 1210 nM. For O=C(N[C@H](C(=O)Nc1cc(CN2C[C@@H](C(F)(F)F)NC2=O)ccn1)C1CCC(F)(F)CC1)OCc1ccccc1 (stereo in doubt) [Example 10, Benzyl ((S)-1-(4,4-difluorocyclohexyl)-2-oxo-2-((4-(((S)-2-oxo-4-(trifluoromethyl)imidazolidin-1-yl)methyl)pyridin-2-yl)amino)ethyl)carbamate], the IC50 was 273 nM. Compound COCC(c1ccnc(NC(=O)[C@@H](NC(=O)c2nonc2C)[C@H]2CC[C@H](C)CC2)c1)N1C[C@@H](C(F)(F)F)NC1=O (single isomer, unassigned) [Example 86] has an IC50 of 6 nM. Work on COCC(c1ccnc(NC(=O)[C@@H](NC(=O)c2ccnn2C(C)C)[C@H]2CC[C@H](C)CC2)c1)N1C[C@@H](C(F)(F)F)NC1=O (single isomer, unassigned) [Example 78] yielded an IC50 of 69 nM. Compound COCC(c1ccnc(NC(=O)[C@@H](NC(=O)c2ccnn2C)C2CCC(C)CC2)c1)N1C[C@@H](C(F)(F)F)NC1=O (stereo partly drawn) [Example 76, N-((1S)-2-((4-(2-methoxy-1-((S)-2-oxo-4-(trifluoro-methyl)imidazolidin-1-yl)ethyl)pyridin-2-yl)amino)-1-((1r,4S)-4-methylcyclohexyl)-2-oxoethyl)-1-methyl-1H-pyrazole-5-carboxamide] has an IC50 of 93 nM. With C[C@H]1CC[C@H]([C@H](NC(=O)c2nonc2C2CC2)C(=O)Nc2cc(C(CO)N3C[C@@H](C(F)(F)F)NC3=O)ccn2)CC1 (single isomer, unassigned) [Example 234, 4-Cyclopropyl-N-((1S)-2-((4-((R or S)-2-hydroxy-1-((S)-2-oxo-4-(trifluoromethyl)imidazolidin-1-yl)ethyl)pyridin-2-yl)amino)-1-((1r,4S)-4-methylcyclohexyl)-2-oxoethyl)-1,2,5-oxadiazole-3-carboxamide] the IC50 was 39 nM. COCC(NC(=O)CCC(F)(F)F)c1ccnc(NC(=O)C(NC(=O)c2ccnn2C(C)C)C2CCC(C)CC2)c1 [Example 246, 1-isopropyl-N-((1S)-2-((4-(2-methoxy-1-(4,4,4-trifluorobutanamido)ethyl)pyridin-2-yl)amino)-1-((1r,4S)-4-methylcyclohexyl)-2-oxoethyl)-1H-pyrazole-5-carboxamide] gave an IC50 of 72 nM. In the case of O=C(CCC(F)(F)F)NC(c1ccnc(NC(=O)[C@@H](NC(=O)c2cocn2)C2CCC(F)(F)CC2)c1)C1CC1 (stereo partly drawn) [Example 109, N-((1S)-2-((4-(cyclopropyl(4,4,4-trifluorobutanamido)methyl)pyridin-2-yl)amino)-1-(4,4-difluorocyclohexyl)-2-oxoethyl)oxazole-4-carboxamide], the IC50 is reported as 7800 nM. C[C@H]1CC[C@H]([C@H](NC(=O)NCc2ccccc2)C(=O)Nc2cc(CN3C[C@@H](C(F)(F)F)NC3=O)ccn2)CC1 [Example 97, (S)-2-(3-Benzylureido)-2-((1r,4S)-4-methylcyclohexyl)-N-(4-(((S)-2-oxo-4-(trifluoromethyl)imidazolidin-1-yl)methyl)pyridin-2-yl)acetamide] showed an IC50 of 2080 nM. Compound CC(C)c1oncc1C(=O)N[C@H](C(=O)Nc1cc(C[C@H]2C[C@@H](C(F)(F)F)NC2=O)ccn1)C1CCC(F)(F)CC1 [Example 219, N-((S)-1-(4,4-difluorocyclohexyl)-2-oxo-2-((4-(((3S,5S)-2-oxo-5-(trifluoromethyl)pyrrolidin-3-yl)methyl)pyridin-2-yl)amino)ethyl)-5-isopropylisoxazole-4-carboxamide] has an IC50 of 80 nM. CCc1nonc1C(=O)N[C@H](C(=O)Nc1cc(CN2C[C@@H](C(F)(F)F)NC2=O)ccn1)[C@H]1CC[C@H](F)CC1 (single isomer, unassigned) [Example 290] showed an IC50 of 160 nM. In the case of Cn1nccc1C(=O)N[C@H](C(=O)Nc1cc(CN2C[C@@H](C(F)(F)F)NC2=O)ccn1)[C@H]1CC[C@@H](C)CC1 [Example 264, 1-Methyl-N—((S)-1-((1s,4R)-4-methylcyclohexyl)-2-oxo-2-((4-(((S)-2-oxo-4-(trifluoromethyl)imidazolidin-1-yl)methyl)pyridin-2-yl)amino)ethyl)-1H-pyrazole-5-carboxamide], the IC50 is reported as 99 nM. Compound Cc1nonc1C(=O)N[C@H](C(=O)Nc1cc([C@@H](C)N2C[C@@H](C(F)(F)F)NC2=O)ccn1)[C@H]1CC[C@H](C)CC1 [Example 237, 4-methyl-N—((S)-1-((1r,4S)-4-methylcyclohexyl)-2-oxo-2-((4-((R)-1-((S)-2-oxo-4-(trifluoromethyl)imidazolidin-1-yl)ethyl)pyridin-2-yl)amino)ethyl)-1,2,5-oxadiazole-3-carboxamide] has an IC50 of 22 nM. COCC(NC(=O)CCC(F)(F)F)c1ccnc(NC(=O)[C@@H](NC(=O)c2ccnn2C(C)C)C2CCC(F)(F)CC2)c1 (single isomer, unassigned) [Example 137] was tested, and the IC50 was 197 nM. Compound CC[C@H](c1ccnc(NC(=O)[C@@H](NC(=O)c2ccnn2C)C2CCC(F)(F)CC2)c1)N1C[C@@H](C(F)(F)F)NC1=O [Example 214, N-((S)-1-(4,4-difluorocyclohexyl)-2-oxo-2-((4-((R)-1-((S)-2-oxo-4-(trifluoromethyl)imidazolidin-1-yl)propyl)pyridin-2-yl)amino)ethyl)-1-methyl-1H-pyrazole-5-carboxamide] has an IC50 of 46 nM. O=C(CCC(F)(F)F)NC(c1ccnc(NC(=O)C(NC(=O)c2nonc2C2CC2)C2CCC(F)(F)CC2)c1)C1CC1 (stereo not shown) [Example 46, 4-cyclopropyl-N-(2-((4-(cyclopropyl(4,4,4-trifluorobutan-amido)methyl)pyridin-2-yl)amino)-1-(4,4-difluorocyclohexyl)-2-oxoethyl)-1,2,5-oxadiazole-3-carboxamide] showed an IC50 of 612 nM. With CCn1nccc1C(=O)N[C@H](C(=O)Nc1cc(C[C@H]2C[C@@H](C(F)(F)F)NC2=O)ccn1)[C@H]1CC[C@H](C)CC1 [Example 155, 1-ethyl-N—((S)-1-((1r,4S)-4-methylcyclohexyl)-2-oxo-2-((4-(((3S,5S)-2-oxo-5-(trifluoromethyl)pyrrolidin-3-yl)methyl)pyridin-2-yl)amino)ethyl)-1H-pyrazole-5-carboxamide] the IC50 was 29 nM. In the case of COCC(NC(=O)CCC(F)(F)F)c1ccnc(NC(=O)[C@@H](NC(=O)c2ccnn2C)C2CCC(F)(F)CC2)c1 (single isomer, unassigned) [Example 143], the IC50 is reported as 3230 nM.

Source: US20260200928A1, “THERAPEUTIC COMPOUNDS” (Sanofi, priority 2022, published 2026)
